{"source": "PubChem BioAssay AID2060503", "about": "(Molecular Pharmacology Branch, DTP, NCI, 2025)", "system": "817829-284-R-J1-PDC complex spheroids, viability", "assay": "Anticancer human tumor 817829-284-R-J1-PDC patient-derived colon adenocarcinoma cell line growth inhibition [GQUAD]", "details": "for viability, T/C: stronger effect = lower value", "text": "DNA G-quadruplex Stabilizer Agents in Combinations in Complex Spheroids\nA high-throughput screen of multi-cell type tumor spheroids was designed to identify active combinations of DNA G-quadruplex stabilizer agents and targeted small molecules. Complex spheroids include a stromal component modeled by human endothelial cells (HUVEC) and fibroblasts modeled by human mesenchymal stem cells (MSCs). The concentration ranges selected for each drug and investigational agent were based upon clinically achievable concentrations if the clinical Cmax of the agent was known.\nCompounds. The drugs and investigational agents: pidnarulex (CX-5461; NSC782164), APTO-253 (NSC789042), BRACO-19 (NSC847499), peposertib (NSC802822), ceralasertib (NSC780249), elimusertib (NSC800525), camonsertib (NSC841442), AZD-1390 (NSC803789), olaparib (NSC753686), talazoparib (NSC767125), ART-558 (NSC835418), sotorasib (NSC818433), MRTX-1133 (NSC836407), SN-38 (NSC673596), topotecan (NSC609699), etoposide (NSC141540), doxorubicin (NSC123127), gemcitabine (NSC613327), 5-fluorouracil (NSC19893), paclitaxel (NSC125973), vemurafenib (NSC761431), panobinostat (NSC761190), R-306465 (JNJ-16241199; NSC773264), adavosertib (NSC754352), TP-3654 (NSC805149), carboplatin (NSC241240), KSQ-4279 (NSC840948), and staurosporine (NSC755774) were obtained from the National Cancer Institute (NCI) Developmental Therapeutics Program Chemical Repository (34). The FDA-approved anticancer drug set is available from the NCI Developmental Therapeutics Program. […] The stock solutions were prepared in dimethyl sulfoxide (DMSO, Sigma-Aldrich, St. Louis, MO, cat. D2650) at 800-fold the tested concentration and stored at -70 degrees C prior to their use. All drugs and investigational agents were tested over a range starting from a high concentration at or near the clinical Cmax and decreasing in half-log increments. If the clinical Cmax for an agent had not been determined, the highest concentration tested was 10 microM.\n2.3 Cell Culture. All cells were maintained in an incubator at 37 degrees C and 5% CO2 with 95% humidity. The PDC lines were cultured according to standard operating procedures established by the NCI PDMR. All PDCs were thawed and cultured in Matrigel-coated flasks prepared with a working solution of 1X Ham's F-12 nutrient mix, without supplementation (Invitrogen, cat. 11765054), 100 U/mL penicillin-streptomycin (Invitrogen, cat. 15140122), and 2.5% Matrigel (Corning Inc., cat. 354248) for the first three passages. The 857933-349-R-J2-PDC line was cultured in 6C/Colon 1B media, which includes advanced DMEM/F-12 (Thermo Fisher Scientific, cat. 12634028), 10 mM HEPES (Thermo Fisher Scientific, cat. 15630080), 1X GlutaMAX supplement (Thermo Fisher Scientific, cat. 35050061), 0.1 mg/mL primocin (InvivoGen, cat. ant-pm-2), 10% defined fetal bovine serum, heat inactivated (HyClone Laboratories Inc., cat. SH30070.03HI), 50% L-WRN conditioned media (ATCC, cat. CRL-3276), 1.25 mM N-Acetyl-L-cysteine (Sigma-Aldrich, cat. A9165), 10 mM nicotinamide (Sigma-Aldrich, cat. N0636), 1X B-27 supplement (Thermo Fisher Scientific, cat. 17504044), 1X N-2 supplement (Thermo Fisher Scientific, cat. 17502048), 10 microM Y-27632 dihydrochloride (Tocris Bioscience, cat. 1254), and 50 ng/mL human EGF recombinant protein (Thermo Fisher Scientific, cat. PHG0311). The 485176-168-R4-J1-PDC line was cultured in Panc media, which includes all 6C/Colon 1B media components plus 100 ng/mL human FGF-10 (Thermo Fisher Scientific, cat. 100-26), 500 nM SB-431542 (Selleckchem, cat. S1067), and gastrin (Tocris, cat. 3006).\n[…]", "note": "Where “and” joins values, the source holds several entries; their conditions need not be identical. Identical values can stand only once.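 Further: spheroids exposed to agents for 7 days before readout.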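 Wherever viability, T/C is given: percent viability relative to DMSO vehicle control taken as 100%.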"}
{"smiles": "COc1ncnc(C2CC2)c1-c1ncc2cnn(Cc3ccc(-c4nc(C(F)(F)F)cn4C(C)C)cc3)c2n1", "values": [{"measurement": "viability, T/C", "setting": "compound 0.0316 µM", "value": "96.6% and 97.8% and 103%"}, {"measurement": "viability, T/C", "setting": "compound 0.1 µM", "value": "97.4% and 111% and 113%"}, {"measurement": "viability, T/C", "setting": "compound 0.316 µM", "value": "99.2% and 107% and 110%"}, {"measurement": "viability, T/C", "setting": "compound 1 µM", "value": "84.8% and 117% and 106%"}, {"measurement": "viability, T/C", "setting": "compound 3.16 µM", "value": "102% and 106% and 111%"}, {"measurement": "viability, T/C", "setting": "compound 10 µM", "value": "116% and 114% and 115%"}, {"measurement": "IC50", "setting": "curve of compound", "value": "> 10", "unit": "µM"}]}
{"smiles": "O=C(c1cc(Cc2n[nH]c(=O)c3ccccc23)ccc1F)N1CCN(C(=O)C2CC2)CC1", "values": [{"measurement": "viability, T/C", "setting": "compound 0.0316 µM", "value": "113% and 106% and 116%"}, {"measurement": "viability, T/C", "setting": "compound 0.1 µM", "value": "87.2% and 96.7% and 103%"}, {"measurement": "viability, T/C", "setting": "compound 0.316 µM", "value": "103% and 99% and 90.6%"}, {"measurement": "viability, T/C", "setting": "compound 1 µM", "value": "91% and 94.4% and 89.3%"}, {"measurement": "viability, T/C", "setting": "compound 3.16 µM", "value": "89.1% and 97.4% and 95.1%"}, {"measurement": "viability, T/C", "setting": "compound 10 µM", "value": "57.6% and 60.7% and 49%"}, {"measurement": "IC50", "setting": "curve of compound", "value": "> 10", "unit": "µM"}]}
{"smiles": "Cc1[nH]c2ccc(F)cc2c1-c1nc2c3cccnc3c3ncccc3c2[nH]1", "values": [{"measurement": "viability, T/C", "setting": "compound 0.1 µM", "value": "103% [middle of 12 runs]"}, {"measurement": "viability, T/C", "setting": "compound 0.316 µM", "value": "106% [middle of 12 runs]"}, {"measurement": "viability, T/C", "setting": "compound 1 µM", "value": "99.8% [middle of 12 runs]"}, {"measurement": "IC50", "setting": "compound alone, run of 02/20/2024", "value": "3.3 µM [middle of 8 runs]"}]}
{"smiles": "COc1ccc([C@@H](O)c2cc(-c3ncnc4cc(N5CCOCC5)ccc34)c(F)cc2Cl)nn1", "note": "+ CN(C)c1ccc(Nc2c3ccc(NC(=O)CCN4CCCC4)cc3nc3cc(NC(=O)CCN4CCCC4)ccc23)cc1", "values": [{"measurement": "IC50", "setting": "curve of first compound, second compound 0.0316 µM", "value": "> 10", "unit": "µM"}, {"measurement": "IC50", "setting": "curve of first compound, second compound 0.1 µM", "value": "> 10", "unit": "µM"}, {"measurement": "IC50", "setting": "curve of first compound, second compound 0.316 µM", "value": "> 10", "unit": "µM"}, {"measurement": "IC50", "setting": "curve of first compound, second compound 1 µM", "value": 8.58, "unit": "µM"}, {"measurement": "IC50", "setting": "curve of first compound, second compound 3.16 µM", "value": 2.95, "unit": "µM"}, {"measurement": "IC50", "setting": "curve of first compound, second compound 10 µM", "value": 1.14, "unit": "µM"}, {"measurement": "viability, T/C", "setting": "second compound 0.0316 µM, first compound 0.0316 µM", "value": 104, "unit": "%"}, {"measurement": "viability, T/C", "setting": "second compound 0.0316 µM, first compound 0.1 µM", "value": 98.7, "unit": "%"}, {"measurement": "viability, T/C", "setting": "second compound 0.0316 µM, first compound 0.316 µM", "value": 103, "unit": "%"}, {"measurement": "viability, T/C", "setting": "second compound 0.0316 µM, first compound 1 µM", "value": 85.5, "unit": "%"}, {"measurement": "viability, T/C", "setting": "second compound 0.0316 µM, first compound 3.16 µM", "value": 88, "unit": "%"}, {"measurement": "viability, T/C", "setting": "second compound 0.0316 µM, first compound 10 µM", "value": 58.1, "unit": "%"}, {"measurement": "viability, T/C", "setting": "second compound 0.1 µM, first compound 0.0316 µM", "value": 86.8, "unit": "%"}, {"measurement": "viability, T/C", "setting": "second compound 0.1 µM, first compound 0.1 µM", "value": 100, "unit": "%"}, {"measurement": "viability, T/C", "setting": "second compound 0.1 µM, first compound 0.316 µM", "value": 94.4, "unit": "%"}, {"measurement": "viability, T/C", "setting": "second compound 0.1 µM, first compound 1 µM", "value": 94.7, "unit": "%"}, {"measurement": "viability, T/C", "setting": "second compound 0.1 µM, first compound 3.16 µM", "value": 63.5, "unit": "%"}, {"measurement": "viability, T/C", "setting": "second compound 0.1 µM, first compound 10 µM", "value": 54.7, "unit": "%"}, {"measurement": "viability, T/C", "setting": "second compound 0.316 µM, first compound 0.0316 µM", "value": 92.2, "unit": "%"}, {"measurement": "viability, T/C", "setting": "second compound 0.316 µM, first compound 0.1 µM", "value": 107, "unit": "%"}, {"measurement": "viability, T/C", "setting": "second compound 0.316 µM, first compound 0.316 µM", "value": 115, "unit": "%"}, {"measurement": "viability, T/C", "setting": "second compound 0.316 µM, first compound 1 µM", "value": 95.5, "unit": "%"}, {"measurement": "viability, T/C", "setting": "second compound 0.316 µM, first compound 3.16 µM", "value": 76, "unit": "%"}, {"measurement": "viability, T/C", "setting": "second compound 0.316 µM, first compound 10 µM", "value": 56.3, "unit": "%"}, {"measurement": "viability, T/C", "setting": "second compound 1 µM, first compound 0.0316 µM", "value": 88.9, "unit": "%"}, {"measurement": "viability, T/C", "setting": "second compound 1 µM, first compound 0.1 µM", "value": 106, "unit": "%"}, {"measurement": "viability, T/C", "setting": "second compound 1 µM, first compound 0.316 µM", "value": 98, "unit": "%"}, {"measurement": "viability, T/C", "setting": "second compound 1 µM, first compound 1 µM", "value": 86.5, "unit": "%"}, {"measurement": "viability, T/C", "setting": "second compound 1 µM, first compound 3.16 µM", "value": 68.8, "unit": "%"}, {"measurement": "viability, T/C", "setting": "second compound 1 µM, first compound 10 µM", "value": 47, "unit": "%"}, {"measurement": "viability, T/C", "setting": "second compound 3.16 µM, first compound 0.0316 µM", "value": 93.6, "unit": "%"}, {"measurement": "viability, T/C", "setting": "second compound 3.16 µM, first compound 0.1 µM", "value": 96.3, "unit": "%"}, {"measurement": "viability, T/C", "setting": "second compound 3.16 µM, first compound 0.316 µM", "value": 96.9, "unit": "%"}, {"measurement": "viability, T/C", "setting": "second compound 3.16 µM, first compound 1 µM", "value": 73.9, "unit": "%"}, {"measurement": "viability, T/C", "setting": "second compound 3.16 µM, first compound 3.16 µM", "value": 50.1, "unit": "%"}, {"measurement": "viability, T/C", "setting": "second compound 3.16 µM, first compound 10 µM", "value": 33.4, "unit": "%"}, {"measurement": "viability, T/C", "setting": "second compound 10 µM, first compound 0.0316 µM", "value": 107, "unit": "%"}, {"measurement": "viability, T/C", "setting": "second compound 10 µM, first compound 0.1 µM", "value": 85.9, "unit": "%"}, {"measurement": "viability, T/C", "setting": "second compound 10 µM, first compound 0.316 µM", "value": 85.7, "unit": "%"}, {"measurement": "viability, T/C", "setting": "second compound 10 µM, first compound 1 µM", "value": 47.5, "unit": "%"}, {"measurement": "viability, T/C", "setting": "second compound 10 µM, first compound 3.16 µM", "value": 31.3, "unit": "%"}, {"measurement": "viability, T/C", "setting": "second compound 10 µM, first compound 10 µM", "value": 13.5, "unit": "%"}]}
